Biological target: APJ receptor (Homo sapiens (Human), UniProt P35414)
Assay: [35S]GTPγS binding assay on membranes from CHO cells stably expressing human APJ receptor
Format: biochemical
Conditions: membranes of CHO cells stably expressing human APJ receptor, means of several independent experiments, read-out: Activity hAPJ SPA EC50 IP
In short: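 Membranes from CHO cells stably expressing human APJ were incubated with 0.2 nM [35S]GTPγS and ligands for 90 min at RT in 20 mM HEPES pH 7.5, 5 mM MgCl2, 200 mM NaCl, 3 μM GDP, 0.1% BSA with WGA PS beads. Nonspecific binding was set with 100 μM GTPγS. EC50 came from non-linear regression.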

Sequence of APJ receptor (P35414 whole entry): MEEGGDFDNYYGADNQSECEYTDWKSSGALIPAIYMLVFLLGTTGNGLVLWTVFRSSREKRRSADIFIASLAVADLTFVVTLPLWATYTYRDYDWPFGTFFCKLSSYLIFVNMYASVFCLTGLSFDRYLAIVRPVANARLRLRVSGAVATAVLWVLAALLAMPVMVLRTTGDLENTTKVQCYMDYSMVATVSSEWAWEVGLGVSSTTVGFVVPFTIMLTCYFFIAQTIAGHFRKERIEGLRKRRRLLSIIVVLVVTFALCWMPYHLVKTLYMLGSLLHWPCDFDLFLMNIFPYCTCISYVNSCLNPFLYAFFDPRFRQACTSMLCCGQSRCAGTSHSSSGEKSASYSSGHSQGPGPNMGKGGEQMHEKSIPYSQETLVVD

Row | EC50 [nM] | Structure (SMILES)
1 | 0.18 | COc1cccc(OC)c1-n1c(NS(=O)(=O)[C@@H](C)[C@H](O)c2cn3ccccc3n2)nnc1-c1ccc(C)o1 (single isomer, unassigned) [Example 265.0, (1R,2S)—N-(4-(2,6-Dimethoxyphenyl)-5-(5-methyl-2-furanyl)-4H-1,2,4-triazol-3-yl)-1-hydroxy-1-imidazo[1,2-a]pyridin-2-yl-2-propanesulfonamide or (1S,2R)—N-(4-(2,6-dimethoxyphenyl)-5-(5-methyl-2-furanyl)-4H-1,2,4-triazol-3-yl)-1-hydroxy-1-imidazo[1,2-a]pyridin-2-yl-2-propanesulfonamide]
2 | 0.56 | COc1cccc(OC)c1-n1c(NS(=O)(=O)[C@H](C)[C@@H](O)c2ncn3ccccc23)nnc1-c1ccc(C)o1 (single isomer, unassigned) [Example 270.0, (1R,2S)—N-(4-(2,6-Dimethoxyphenyl)-5-(5-methyl-2-furanyl)-4H-1,2,4-triazol-3-yl)-1-hydroxy-1-imidazo[1,5-a]pyridin-1-yl-2-propanesulfonamide or (1S,2R)—N-(4-(2,6-dimethoxyphenyl)-5-(5-methyl-2-furanyl)-4H-1,2,4-triazol-3-yl)-1-hydroxy-1-imidazo[1,5-a]pyridin-1-yl-2-propanesulfonamide]
3 | 0.72 | COc1cccc(OC)c1-n1c(NS(=O)(=O)[C@@H](C)[C@H](O)c2cn(C)cn2)nnc1-c1ccc(C)o1 (single isomer, unassigned) [Example 273.0, (1R,2S)—N-(4-(2,6-Dimethoxyphenyl)-5-(5-methyl-2-furanyl)-4H-1,2,4-triazol-3-yl)-1-hydroxy-1-(1-methyl-1H-imidazol-4-yl)-2-propanesulfonamide or (1S,2R)—N-(4-(2,6-dimethoxyphenyl)-5-(5-methyl-2-furanyl)-4H-1,2,4-triazol-3-yl)-1-hydroxy-1-(1-methyl-1H-imidazol-4-yl)-2-propanesulfonamide]
4 | 0.85 | COc1cccc(OC)c1-n1c(NS(=O)(=O)[C@@H](C)[C@H](O)c2coc(C)n2)nnc1-c1ccc(C)o1 (single isomer, unassigned) [Example 275.0, (1R,2S)—N-(4-(2,6-Dimethoxyphenyl)-5-(5-methyl-2-furanyl)-4H-1,2,4-triazol-3-yl)-1-hydroxy-1-(2-methyl-1,3-oxazol-4-yl)-2-propanesulfonamide or (1S,2R)—N-(4-(2,6-dimethoxyphenyl)-5-(5-methyl-2-furanyl)-4H-1,2,4-triazol-3-yl)-1-hydroxy-1-(2-methyl-1,3-oxazol-4-yl)-2-propanesulfonamide]
5 | 4.1 | COc1cccc(OC)c1-n1c(NS(=O)(=O)[C@H](C)[C@@H](OC)c2cn3ccccc3n2)nnc1-c1ccc(C)o1 (single isomer, unassigned) [Example 287.0, (1R,2S)—N-(4-(2,6-Dimethoxyphenyl)-5-(5-methyl-2-furanyl)-4H-1,2,4-triazol-3-yl)-1-imidazo[1,2-a]pyridin-2-yl-1-methoxy-2-propanesulfonamide or (1S,2R)—N-(4-(2,6-dimethoxyphenyl)-5-(5-methyl-2-furanyl)-4H-1,2,4-triazol-3-yl)-1-imidazo[1,2-a]pyridin-2-yl-1-methoxy-2-propanesulfonamide]
6 | 4.2 | COc1cccc(OC)c1-n1c(NS(=O)(=O)[C@H](C)[C@@H](O)c2ncn3ccccc23)nnc1-c1ccc(C)o1 (single isomer, unassigned) [Example 288.0, (1R,2S)—N-(4-(2,6-Dimethoxyphenyl)-5-(5-methyl-2-furanyl)-4H-1,2,4-triazol-3-yl)-1-hydroxy-1-imidazo[1,5-a]pyridin-1-yl-2-propanesulfonamide or (1S,2R)—N-(4-(2,6-dimethoxyphenyl)-5-(5-methyl-2-furanyl)-4H-1,2,4-triazol-3-yl)-1-hydroxy-1-imidazo[1,5-a]pyridin-1-yl-2-propanesulfonamide]
7 | 4.9 | COc1cccc(OC)c1-n1c(NS(=O)(=O)[C@@H](C)[C@H](O)c2cn3ccccc3n2)nnc1-c1ccc(C)o1 (single isomer, unassigned) [Example 289.0, (1R,2S)—N-(4-(2,6-Dimethoxyphenyl)-5-(5-methyl-2-furanyl)-4H-1,2,4-triazol-3-yl)-1-hydroxy-1-imidazo[1,2-a]pyridin-2-yl-2-propanesulfonamide or (1S,2R)—N-(4-(2,6-dimethoxyphenyl)-5-(5-methyl-2-furanyl)-4H-1,2,4-triazol-3-yl)-1-hydroxy-1-imidazo[1,2-a]pyridin-2-yl-2-propanesulfonamide]

The next lines start with the compound.

Row | Structure (SMILES) | EC50 [nM]
8 | COc1cccc(OC)c1-n1c(NS(=O)(=O)[C@@H](C)[C@](C)(N)c2ncc(F)cn2)nnc1-c1ccc(C)o1 (single isomer, unassigned) [Example 243.0] | 0.87
9 | COc1cccc(OC)c1-n1c(NS(=O)(=O)C[C@](C)(F)c2ncc(C#N)cn2)nnc1-c1ccc(C)o1 (single isomer, unassigned) [Example 245.0, (2R)-2-(5-Cyano-2-pyrimidinyl)-N-(4-(2,6-dimethoxyphenyl)-5-(5-methyl-2-furanyl)-4H-1,2,4-triazol-3-yl)-2-fluoro-1-propanesulfonamide or (2S)-2-(5-cyano-2-pyrimidinyl)-N-(4-(2,6-dimethoxyphenyl)-5-(5-methyl-2-furanyl)-4H-1,2,4-triazol-3-yl)-2-fluoro-1-propanesulfonamide] | 0.95
10 | COc1cccc(OC)c1-n1c(NS(=O)(=O)[C@@H](C)[C@](C)(N)c2ncc(F)cn2)nnc1-c1ccc(C)o1 (single isomer, unassigned) [Example 246.0] | 1.4
11 | COc1cccc(OC)c1-n1c(NS(=O)(=O)C[C@@](C)(O)c2ncc(C#N)cn2)nnc1-c1ccc(C)o1 (single isomer, unassigned) [Example 248.0, (2S)-2-(5-Cyano-2-pyrimidinyl)-N-(4-(2,6-dimethoxyphenyl)-5-(5-methyl-2-furanyl)-4H-1,2,4-triazol-3-yl)-2-hydroxy-1-propanesulfonamide or (2R)-2-(5-cyano-2-pyrimidinyl)-N-(4-(2,6-dimethoxyphenyl)-5-(5-methyl-2-furanyl)-4H-1,2,4-triazol-3-yl)-2-hydroxy-1-propanesulfonamide] | 1.6
12 | COc1cccc(OC)c1-n1c(NS(=O)(=O)C[C@@](C)(O)c2ncc(F)cn2)nnc1-c1ccc(C)o1 (single isomer, unassigned) [Example 249.0] | 2.5
13 | COc1cccc(OC)c1-n1c(NS(=O)(=O)[C@@H](C)[C@H](OC)c2cn3ccccc3n2)nnc1-c1ccc(C)o1 (single isomer, unassigned) [Example 263.0, (1R,2S)—N-(4-(2,6-Dimethoxyphenyl)-5-(5-methyl-2-furanyl)-4H-1,2,4-triazol-3-yl)-1-imidazo[1,2-a]pyridin-2-yl-1-methoxy-2-propanesulfonamide or (1S,2R)—N-(4-(2,6-dimethoxyphenyl)-5-(5-methyl-2-furanyl)-4H-1,2,4-triazol-3-yl)-1-imidazo[1,2-a]pyridin-2-yl-1-methoxy-2-propanesulfonamide] | 0.086
14 | COc1cccc(OC)c1-n1c(NS(=O)(=O)[C@@H](C)[C@H](O)c2cc3ccccn3n2)nnc1-c1ccc(C)o1 (single isomer, unassigned) [Example 266.0, (1R,2S)—N-(4-(2,6-Dimethoxyphenyl)-5-(5-methyl-2-furanyl)-4H-1,2,4-triazol-3-yl)-1-hydroxy-1-pyrazolo[1,5-a]pyridin-2-yl-2-propanesulfonamide or (1S,2R)—N-(4-(2,6-dimethoxyphenyl)-5-(5-methyl-2-furanyl)-4H-1,2,4-triazol-3-yl)-1-hydroxy-1-pyrazolo[1,5-a]pyridin-2-yl-2-propanesulfonamide] | 0.21
15 | COc1cccc(OC)c1-n1c(NS(=O)(=O)[C@@H](C)[C@H](O)c2cccc3ccnn23)nnc1-c1ccc(C)o1 (single isomer, unassigned) [Example 267.0, (1R,2S)—N-(4-(2,6-Dimethoxyphenyl)-5-(5-methyl-2-furanyl)-4H-1,2,4-triazol-3-yl)-1-hydroxy-1-pyrazolo[1,5-a]pyridin-7-yl-2-propanesulfonamide or (1S,2R)—N-(4-(2,6-dimethoxyphenyl)-5-(5-methyl-2-furanyl)-4H-1,2,4-triazol-3-yl)-1-hydroxy-1-pyrazolo[1,5-a]pyridin-7-yl-2-propanesulfonamide] | 0.43
16 | COc1cccc(OC)c1-n1c(NS(=O)(=O)[C@H](C)[C@H](OC)c2cn3ccccc3n2)nnc1-c1ccc(C)o1 (single isomer, unassigned) [Example 268.0, (1S,2S)—N-(4-(2,6-Dimethoxyphenyl)-5-(5-methyl-2-furanyl)-4H-1,2,4-triazol-3-yl)-1-imidazo[1,2-a]pyridin-2-yl-1-methoxy-2-propanesulfonamide or (1R,2R)—N-(4-(2,6-dimethoxyphenyl)-5-(5-methyl-2-furanyl)-4H-1,2,4-triazol-3-yl)-1-imidazo[1,2-a]pyridin-2-yl-1-methoxy-2-propanesulfonamide] | 0.47
17 | COc1cccc(OC)c1-n1c(NS(=O)(=O)[C@@H](C)[C@@H](O)c2cc3ccccn3n2)nnc1-c1ccc(C)o1 (single isomer, unassigned) [Example 271.0, (1S,2S)—N-(4-(2,6-Dimethoxyphenyl)-5-(5-methyl-2-furanyl)-4H-1,2,4-triazol-3-yl)-1-hydroxy-1-pyrazolo[1,5-a]pyridin-2-yl-2-propanesulfonamide or (1R,2R)—N-(4-(2,6-dimethoxyphenyl)-5-(5-methyl-2-furanyl)-4H-1,2,4-triazol-3-yl)-1-hydroxy-1-pyrazolo[1,5-a]pyridin-2-yl-2-propanesulfonamide] | 0.62

From US10736883B2, “Triazole furan compounds as agonists of the APJ receptor” (AMGEN INC., priority 2016, dated 2020)
